Source: patent publication US8569336B2, “Compounds for the treatment of inflammatory disorders” (priority 2008, dated 2013)
Read-outs that look alike come from different tables or passages of the source.

Columns and labels:
[1] = molecular target: T1, purified catalytic domain of recombinant human TACE (rhTACEc) (Homo sapiens, UniProt P78536, N452Q/S266A); test: TACE kinetic assay: cleavage of internally quenched peptide substrate TNF-FRET 2 (Ki); type: biochemical; details: TNF-FRET 2 substrate
T1 construct: 6xHis (C); made in house; host or cells: baculovirus/Hi5 insect cells
T1 sequence (P78536 215-477 S266A/N452Q): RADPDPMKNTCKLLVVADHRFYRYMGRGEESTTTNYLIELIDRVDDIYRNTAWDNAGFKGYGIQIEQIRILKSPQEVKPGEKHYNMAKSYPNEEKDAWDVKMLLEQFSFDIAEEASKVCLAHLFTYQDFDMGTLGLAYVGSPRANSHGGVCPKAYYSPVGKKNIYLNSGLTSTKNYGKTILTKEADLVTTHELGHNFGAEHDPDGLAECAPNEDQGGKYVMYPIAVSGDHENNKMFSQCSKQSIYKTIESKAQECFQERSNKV

[2] = tested on: TNF-α production from human whole blood; test: Inhibition of TNF-α production from human whole blood (hWBA), LPS stimulated, ELISA; type: cell-based; details: Homo sapiens, TNF-α by ELISA, read-out: hWBA (IC50)
[3] = Area under the curve determinations of plasma levels in rats (rrAUC), oral 10 mg/kg; type: in vivo; details: rat, read-out: RR AUC (rapid rat AUC, rrAUC)
[4] = LPS-stimulated human whole blood
[5] = 3.5 h, human whole blood diluted 1:1, LPS stimulated, 3.5 h
[6] = human whole blood diluted 1:1, LPS stimulated
[7] = plasma, blood collected 0.5-6 h post-dosing

COc1ccc2c(c1F)C(=O)N(C[C@@]1(c3cc4nc(Nc5ccc(-c6cn[nH]c6)cn5)ccc4o3)NC(=O)NC1=O)C2 [Compound 1734]
Ki ([1]; read-out: Ki): 1.92 nM
IC50 [2, 4]: 289 nM
AUC ([3]; plasma 0.5-6 h): 0.068 µM·h

CCC1(c2cc(F)c3oc([C@]4(CN5Cc6ccc(OC)cc6C5=O)NC(=O)NC4=O)cc3c2)NC(=O)NC1=O (stereo partly drawn) [Compound 2210]
Ki ([1]; read-out: Ki): 0.319 nM
IC50 [2, 5]: 232 nM
AUC ([3]; plasma 0.5-6 h post-dosing): 0.018 µM·h

COc1ccc2c(c1)C(=O)N(C[C@@]1(c3cc4cnc(C)cc4o3)NC(=O)NC1=O)C2 [Compound 2258]
Ki ([1]; read-out: Ki): 0.366 nM
IC50 [2, 5]: 345 nM
AUC ([3]; plasma 0.5-6 h post-dosing): 19.1 µM·h

COc1ccc2c(c1)C(=O)N(C[C@@]1(c3cc4nc(-c5c(C)nn(C)c5C)ccc4o3)NC(=O)NC1=O)C2 [Compound 2105]
Ki ([1]; read-out: Ki): 0.155 nM
IC50 [2, 5]: 216 nM
AUC ([3]; plasma 0.5-6 h post-dosing): 7.54 µM·h

COc1ccc2c(c1)C(=O)N(C[C@@]1(c3cc4c(-c5ccncc5)nccc4o3)NC(=O)NC1=O)C2 [Compound 2236]
Ki ([1]; read-out: Ki): 0.54 nM
IC50 [2, 5]: 949 nM
AUC ([3]; plasma 0.5-6 h post-dosing): 0.02 µM·h

COc1ccc2c(c1)C(=O)N(C[C@@]1(c3cc4cc(N)ccc4o3)NC(=O)NC1=O)C2 [Compound 2226]
Ki ([1]; read-out: Ki): 0.807 nM
IC50 [2, 5]: 573 nM
AUC ([3]; plasma 0.5-6 h post-dosing): 0.467 µM·h

COc1ccc2c(c1F)C(=O)N(C[C@@]1(c3cc4nc(N5CCN(C6CC6)CC5)ccc4o3)NC(=O)NC1=O)C2 [Compound 1711]
Ki ([1]; read-out: Ki): 0.5 nM
IC50 [2, 4]: 113 nM
AUC ([3]; plasma 0.5-6 h): 5.09 µM·h

COc1ccc2c(c1)C(=O)N(C[C@@]1(c3cc4nc(N5CCC[C@@H](O)C5)ccc4o3)NC(=O)NC1=O)C2 [Compound 2170]
Ki ([1]; Ki): 0.415 nM
IC50 [2, 5]: 189 nM
AUC ([3]; plasma 0.5-6 h post-dosing): 0.414 µM·h

COc1ccc2c(c1)C(=O)N(C[C@@]1(c3cc4cc(-c5cc[nH]n5)ccc4o3)NC(=O)NC1=O)C2 [Compound 2219]
Ki ([1]; read-out: Ki): 0.682 nM
IC50 [2, 5]: 1390 nM
AUC ([3]; plasma 0.5-6 h post-dosing): 1.02 µM·h

COc1ccc2c(c1)C(=O)N(C[C@@]1(c3cc4nc(N5CCCC(C(N)=O)C5)ccc4o3)NC(=O)NC1=O)C2 (stereo partly drawn) [Compound 1515]
Ki ([1]; read-out: Ki): 0.7 nM
IC50 [2, 4]: 245 nM
AUC ([3]; plasma 0.5-6 h): 0.145 µM·h

COc1ccc2c(c1F)C(=O)N(C[C@@]1(c3cc4nc(N5CCN(C(C)C)CC5)ccc4o3)NC(=O)NC1=O)C2 [Compound 1706]
Ki ([1]; read-out: Ki): 0.5 nM
IC50 [2, 4]: 224 nM
AUC ([3]; plasma 0.5-6 h): 0.273 µM·h

COc1ccc2c(c1)C(=O)N(C[C@@]1(c3cc4cnc(-c5cccc(C#N)c5)cc4o3)NC(=O)NC1=O)C2 [Compound 2489]
Ki ([1]; read-out: Ki): 0.799 nM
IC50 [2, 6]: 8420 nM
AUC [3, 7]: 10.6 µM·h

COc1ccc2c(c1)C(=O)N(C[C@@]1(c3cc4cc(CNCCN(C)C)ccc4o3)NC(=O)NC1=O)C2 [Compound 2177]
Ki ([1]; read-out: Ki): 0.711 nM
IC50 [2, 5]: 278 nM
AUC ([3]; plasma 0.5-6 h post-dosing): 0.069 µM·h

COc1ccc2c(c1F)C(=O)N(C[C@@]1(c3cc4nc(-c5c(C)nn(C)c5C)ccc4o3)NC(=O)NC1=O)C2 [Compound 2119]
Ki ([1]; read-out: Ki): 0.39 nM
IC50 [2, 5]: 243 nM
AUC ([3]; plasma 0.5-6 h post-dosing): 7 µM·h

COc1ccc2c(c1)C(=O)N(C[C@@]1(c3cc4nc(-n5ccnc5)ccc4o3)NC(=O)NC1=O)C2 [Compound 2164]
Ki ([1]; read-out: Ki): 0.557 nM
IC50 [2, 5]: 168 nM
AUC ([3]; plasma 0.5-6 h post-dosing): 0.534 µM·h

CCN1CCN(c2ccc3oc([C@]4(CN5Cc6ccc(OC)cc6C5=O)NC(=O)NC4=O)cc3n2)CC1 [Compound 2123]
Ki ([1]; read-out: Ki): 0.807 nM
IC50 [2, 5]: 136 nM
AUC ([3]; plasma 0.5-6 h post-dosing): 0.727 µM·h

CCN1CCN(c2ccc3oc([C@]4(CN5Cc6ccc(OC)c(F)c6C5=O)NC(=O)NC4=O)cc3n2)CC1 [Compound 1705]
Ki ([1]; read-out: Ki): 0.82 nM
IC50 [2, 4]: 137 nM
AUC ([3]; plasma 0.5-6 h): 1.2 µM·h

CCC1(c2cc(F)c3oc([C@]4(CN5Cc6ccc(OC)c(F)c6C5=O)NC(=O)NC4=O)cc3c2)NC(=O)NC1=O (stereo partly drawn) [Compound 1305]
Ki ([1]; read-out: Ki): 0.77 nM
IC50 [2, 4]: 239 nM
AUC ([3]; plasma 0.5-6 h): 1.87 µM·h

COc1ccc2c(c1)C(=O)N(C[C@@]1(c3cc4nc(Nc5cccnc5)ccc4o3)NC(=O)NC1=O)C2 [Compound 2130]
Ki ([1]; Ki): 0.629 nM
IC50 [2, 5]: 163 nM
AUC ([3]; plasma 0.5-6 h post-dosing): 0.072 µM·h

COc1ccc2c(c1)C(=O)N(C[C@@]1(c3cc4c5c(ccc4o3)C(=O)NC5)NC(=O)NC1=O)C2 [Compound 2504]
Ki ([1]; read-out: Ki): 0.45 nM
IC50 [2, 6]: 189 nM
AUC [3, 7]: 0.181 µM·h

COc1ccc2c(c1F)C(=O)N(C[C@@]1(c3cc4nc(-c5ccncc5)ccc4o3)NC(=O)NC1=O)C2 [Compound 2122]
Ki ([1]; Ki): 0.58 nM
IC50 [2, 5]: 426 nM
AUC ([3]; plasma 0.5-6 h post-dosing): 8.18 µM·h

COc1ccc2c(c1)C(=O)N(C[C@@]1(c3cc4c(C)nccc4o3)NC(=O)NC1=O)C2 [Compound 2284]
Ki ([1]; read-out: Ki): 0.5 nM
IC50 [2, 6]: 198 nM
AUC [3, 7]: 2.8 µM·h

COc1ccc2c(c1)C(=O)N(C[C@@]1(c3cc4nc(-c5ccc(N)nc5)ccc4o3)NC(=O)NC1=O)C2 [Compound 2102]
Ki ([1]; Ki): 0.328 nM
IC50 [2, 5]: 164 nM
AUC ([3]; plasma 0.5-6 h post-dosing): 0.092 µM·h

COc1ccc2c(c1)C(=O)N(C[C@@]1(c3cc4cnc(Cl)cc4o3)NC(=O)NC1=O)C2 [Compound 2285]
Ki ([1]; read-out: Ki): 0.44 nM
IC50 [2, 6]: 368 nM
AUC [3, 7]: 22.2 µM·h

COc1ccc2c(c1)C(=O)N(C[C@@]1(c3cc4nc(N5CCC5=O)ccc4o3)NC(=O)NC1=O)C2 [Compound 2173]
Ki ([1]; read-out: Ki): 0.955 nM
IC50 [2, 5]: 243 nM
AUC ([3]; plasma 0.5-6 h post-dosing): 2.54 µM·h

COc1ccc2c(c1)C(=O)N(C[C@@]1(c3cc4cc(-c5cccnc5)ncc4o3)NC(=O)NC1=O)C2 [Compound 2239]
Ki ([1]; read-out: Ki): 0.669 nM
IC50 [2, 5]: 718 nM
AUC ([3]; plasma 0.5-6 h post-dosing): 9.84 µM·h

COc1ccc2c(c1F)C(=O)N(C[C@@]1(c3cc4nc(N5CCN(C)CC5)ccc4o3)NC(=O)NC1=O)C2 [Compound 2125]
Ki ([1]; read-out: Ki): 0.5 nM
IC50 [2, 5]: 144 nM
AUC ([3]; plasma 0.5-6 h post-dosing): 1.52 µM·h

COc1ccc2c(c1)C(=O)N(C[C@@]1(c3cc4cc(C5(C)NC(=O)NC5=O)c(C)cc4o3)NC(=O)NC1=O)C2 (stereo partly drawn) [Compound 2207]
Ki ([1]; read-out: Ki): 0.813 nM
IC50 [2, 5]: 310 nM
AUC ([3]; plasma 0.5-6 h post-dosing): 0.063 µM·h

COc1ccc2c(c1)C(=O)N(C[C@@]1(c3cc4cc(C5(C)NC(=O)NC5=O)c(F)cc4o3)NC(=O)NC1=O)C2 (stereo partly drawn) [Compound 2200]
Ki ([1]; read-out: Ki): 1.85 nM
IC50 [2, 5]: 217 nM
AUC ([3]; plasma 0.5-6 h post-dosing): 0.177 µM·h

CCN1CCC(c2nc3cc([C@]4(CN5Cc6ccc(OC)c(F)c6C5=O)NC(=O)NC4=O)oc3cc2F)CC1 [Compound 1325]
Ki ([1]; read-out: Ki): 1 nM
IC50 [2, 4]: 175 nM
AUC ([3]; plasma 0.5-6 h): 0.009 µM·h

COc1ccc2c(c1)C(=O)N(C[C@@]1(c3cc4c(C#N)nccc4o3)NC(=O)NC1=O)C2 [Compound 323]
Ki ([1]; Ki): 0.7 nM
IC50 [2, 4]: 1240 nM
AUC ([3]; plasma 0.5-6 h): 0.485 µM·h

COc1ccc2c(c1)C(=O)N(C[C@@]1(c3cc4nc(-c5cccnc5)ccc4o3)NC(=O)NC1=O)C2 [Compound 2107]
Ki ([1]; read-out: Ki): 0.902 nM
IC50 [2, 5]: 171 nM
AUC ([3]; plasma 0.5-6 h post-dosing): 3.08 µM·h

COc1ccc2c(c1F)C(=O)N(C[C@@]1(c3cc4nc(N5CCNC5=O)c(F)cc4o3)NC(=O)NC1=O)C2 [Compound 1331]
Ki ([1]; read-out: Ki): 0.66 nM
IC50 [2, 4]: 310 nM
AUC ([3]; plasma 0.5-6 h): 0.67 µM·h

COc1ccc2c(c1)C(=O)N(C[C@@]1(c3cc4cc(C5(C)NC(=O)NC5=O)cnc4o3)NC(=O)NC1=O)C2 (stereo partly drawn) [Compound 500]
Ki ([1]; read-out: Ki): 0.695 nM
IC50 [2, 4]: 163 nM
AUC ([3]; plasma 0.5-6 h): 1.1 µM·h

COc1ccc2c(c1)C(=O)N(C[C@@]1(c3cc4c(N5CCOCC5)nccc4o3)NC(=O)NC1=O)C2 [Compound 2281]
Ki ([1]; read-out: Ki): 0.458 nM
IC50 [2, 6]: 510 nM
AUC [3, 7]: 0.749 µM·h

COc1ccc2c(c1F)C(=O)N(C[C@@]1(c3cc4ncc(C(=O)NC5CC5)cc4o3)NC(=O)NC1=O)C2 [Compound 1909]
Ki ([1]; read-out: Ki): 1.15 nM
IC50 [2, 4]: 585 nM
AUC ([3]; plasma 0.5-6 h): 0.066 µM·h

COc1ccc2c(c1F)C(=O)N(C[C@@]1(c3cc4nc(C5(C)NC(=O)NC5=O)ccc4o3)NC(=O)NC1=O)C2 (mixture of isomers) [Compound 1901]
Ki ([1]; read-out: Ki): 0.49 nM
IC50 [2, 4]: 100 nM
AUC ([3]; plasma 0.5-6 h): 1.07 µM·h

COc1ccc2c(c1)C(=O)N(C[C@@]1(c3cc4c(o3)CN(C)CC4)NC(=O)NC1=O)C2 [Compound 2264]
Ki ([1]; read-out: Ki): 0.417 nM
IC50 [2, 5]: 1180 nM
AUC ([3]; plasma 0.5-6 h post-dosing): 0.623 µM·h

COc1ccc2c(c1)C(=O)N(C[C@@]1(c3cc4nc(NC5CC5)ccc4o3)NC(=O)NC1=O)C2 [Compound 2148]
Ki ([1]; read-out: Ki): 0.179 nM
IC50 [2, 5]: 624 nM
AUC ([3]; plasma 0.5-6 h post-dosing): 9.34 µM·h
